The results in this text go back to patent US11673881B2, “Isoquinolin-3-yl carboxamides and preparation and use thereof” (BioSplice Therapeutics, Inc., priority 2016, dated 2023).

Assay [1] relates to Wnt activity, Sp5-Luc reporter in SW480 colon carcinoma cells. Put plainly: Screening assay for Wnt activity (Sp5-Luc reporter gene assay). It counts as cell-based, human.
Description: The screening assay for Wnt activity is described as follows.
Following incubation, 15 μl of BriteLite Plus luminescence reagent (Perkin Elmer) was added to each well of the 384-well assay plates. The plates were placed on an orbital shaker for 2 min and then luminescence was quantified using the Envision (Perkin Elmer) plate reader.
In assay [2] the test system is Tau phosphorylation at Ser396 (pSer396). Description: Tau phosphorylation assay (pSer396) in SH-SY5Y cells. To be noted: overnight (16-18 h) exposure, pSer396 Tau ELISA. It counts as cell-based, human.
Description: Two days before treatment, cells were seeded onto 96 well plates at 5×10^4 cells/well.
Wells were visually checked for cell death or change in morphology and supernatants were tested for cytotoxicity by measurement of lactate dehydrogenase release (LDH, CytoToxOne kit, Promega) if necessary.
Cells were lysed with RIPA buffer complemented with phosphatase and protease inhibitors then lysates were spun down at 12,000 g for 10 min to remove any cellular debris. Lysates are then either directly tested for pSer396 by ELISA (Life Technology, Kit KHB7031) or loaded on NuPage Bis-Tris gels for western blot analysis. Colorimetric detection of ELISA signal is performed by Cytation3 plate reader (Biotek) and the chemiluminescence signal for HRP-linked antibodies used in western blotting is detected using a Carestream Image Station. The same pSer396 antibody is used for detection of pTau in both assays.
Assay [3] deals with SW480 colon carcinoma cells. Put plainly: Cell viability assay (CellTiter-Glo). The following applies: four days incubation. It counts as cell-based, human.
The test system of assay [4] is LL29 cells (αSMA positive cells). Put plainly: Fibrosis assay: TGF-β1 treated primary human fibroblasts from IPF patients, αSMA staining. Type of assay: cell-based. The following applies: LL29 cells treated with TGF-β1, 4 days.
Another assay relates to IL-6. Description: IL-6 inhibition in LPS-stimulated human peripheral blood mononuclear cells (HTRF). Type of assay: cell-based. The following applies: LPS-stimulated huPBMCs, IL-6 HTRF.

Description for IL-6: After 22 hour incubation, a mixture of anti-IL6 XL665 and anti-IL-6 Cryptate diluted in reconstitution buffer (Catalog #62IL6PEC, Cisbio Inc., Bedford, Mass.) was added to each well. […] All samples were processed in duplicate. […] EC50 was determined using software generated by Dotmatics Limited (Windhill Bishops Stortford Herts, UK) using the Levenberg-Marquardt 4 parameter fitting procedure with finite different gradients.

As to `Cn1cc(-c2ccc3cnc(NC(=O)C(C)(C)F)cc3c2)nn1` [Compound 312, 2-Fluoro-2-methyl-N-(6-(1-methyl-1H-1,2,3-triazol-4-yl)isoquinolin-3-yl) propanamide], in assay [1] (given for EC50 of >10 μM), the “percent inhibition at 10 μM” value is reported as 23.8%. Further, the EC50 in assay [1] (incubated 36 to 48 hours) is > 10 µM; in assay [2], 0.762 µM; in assay [3], > 10 µM; in assay [4] (αSMA staining), > 10 µM; in the assay with IL-6 it was > 10 µM. The results for the “percent inhibition at 10 μM (given where EC50 >10 μM)” value (in assay [4] (10 μM); with IL-6 (10 μM)) were 36.5% and 3.9%, respectively.
